The values below come from patent US8741897B2, “Glucocorticoid mimetics, methods of making them, pharmaceutical compositions and uses thereof” (Boehringer Ingelheim Pharmaceuticals Inc., priority 2003, dated 2014).

Assay [1] deals with Human osteosarcoma MG-63 cells. As to the kind of experiment: Inhibition of osteocalcin production from osteoblast cell line MG-63. It is filed as cell-based. As to conditions: Vitamin D 10 nM, 48 hours. On the procedure:
7. Inhibition of Osteocalcin Production from Osteoblast Cell Line MG-63
The next day, wells are replaced with fresh media. Cells are treated with Vitamin D (Sigma, Cat. No. D1530) to a final concentration of 10 nM, and with the test compounds in concentrations of 10^−6 M to 10^−9 M, in a total volume of 200 μL per well. Samples are done in duplicates. […] Positive control wells receive Vitamin D only, without compounds, and represent maximum (100%) amount of osteocalcin production. Plates are incubated at 37° C. incubator for 48 hours and supernatants are harvested at the end of incubation. Amounts of osteocalcin in the supernatants are determined by the Glype osteocalcin ELISA kit (Zymed, Cat. No. 99-0054) according to manufacture's protocol. Inhibition of osteocalcin by test compounds is expressed in percentage relative to positive controls. IC50 values of the test compounds are derived by non-lineal curve fitting.

Assay [2] concerns glucocorticoid receptor function. As to the kind of experiment: one or more of the above assays (GR binding and glucocorticoid receptor cell assays: aromatase, IL-6, TAT, MMTV-Luc, IL-8, ICAM-Luc). It counts as cell-based. Conditions: assay not specified per compound.
For assay [3], the target named is T1, human glucocorticoid receptor (GR) complex (Homo sapiens, UniProt P04150).
T1 construct: made in house; host or cells: insect expression system (baculovirus lysate)
T1 sequence (P04150 1-777): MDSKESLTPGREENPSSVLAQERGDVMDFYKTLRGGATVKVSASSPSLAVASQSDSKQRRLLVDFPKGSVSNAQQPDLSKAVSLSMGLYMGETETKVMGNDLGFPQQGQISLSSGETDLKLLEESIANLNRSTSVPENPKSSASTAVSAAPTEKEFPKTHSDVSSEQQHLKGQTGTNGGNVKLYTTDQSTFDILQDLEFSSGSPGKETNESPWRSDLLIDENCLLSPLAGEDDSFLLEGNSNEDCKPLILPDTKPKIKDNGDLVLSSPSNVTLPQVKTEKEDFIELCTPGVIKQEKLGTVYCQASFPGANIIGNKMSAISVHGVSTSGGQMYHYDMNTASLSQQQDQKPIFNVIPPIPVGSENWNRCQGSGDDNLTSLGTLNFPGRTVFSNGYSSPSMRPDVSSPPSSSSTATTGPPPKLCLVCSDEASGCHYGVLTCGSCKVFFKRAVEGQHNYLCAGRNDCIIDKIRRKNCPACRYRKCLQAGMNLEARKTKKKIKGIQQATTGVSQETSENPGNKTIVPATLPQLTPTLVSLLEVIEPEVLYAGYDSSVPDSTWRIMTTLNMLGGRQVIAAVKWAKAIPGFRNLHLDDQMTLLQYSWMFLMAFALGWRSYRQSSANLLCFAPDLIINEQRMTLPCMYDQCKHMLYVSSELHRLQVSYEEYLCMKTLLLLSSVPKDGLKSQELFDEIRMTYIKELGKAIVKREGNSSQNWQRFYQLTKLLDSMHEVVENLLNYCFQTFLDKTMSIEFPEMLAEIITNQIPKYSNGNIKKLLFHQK
As to the kind of experiment: Glucocorticoid receptor competitive binding assay (fluorescence polarization, TAMRA-labeled dexamethasone probe). As to conditions: compounds of Formula (IA). In outline:
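Fluorescence-polarization competition against 15 nM TAMRA-dexamethasone (stock added to the mix) for human GR complex from baculovirus lysate diluted 1:170. Buffer: 10 mM TES, 50 mM KCl, 20 mM Na2MoO4, 1.5 mM EDTA, 0.04% CHAPS, 10% glycerol, 1 mM DTT, pH 7.4. IC50 from 4-parameter logistic fit.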
Background: In fluorescence polarisation assays a small probe gives low polarisation when free and higher when bound to something large.

Consider `CC(C)(CC(O)(Cc1cc2cc(-c3cccnc3)ccc2[nH]1)C(F)(F)F)c1cc(F)cc2c1OCC2` (centres unmarked), for which the “inhibit the vitamin D stimulated production of osteocalcin” value in assay [1] is “inhibit”.

On to `COc1ccc(-c2cccnc2)cc1C(C)(C)CC(O)(Cc1cc2cc(N3CCCCC3)ncc2[nH]1)C(F)(F)F` (centres unmarked) [1,1,1-Trifluoro-4-(2-methoxy-5-pyridin-3-ylphenyl)-4-methyl-2-(5-piperidin-1-yl-1H-pyrrolo[2,3-c]pyridin-2-ylmethyl)pentan-2-ol], for which the “activity as agonists of the glucocorticoid receptor function in one or more of the above assays” value (“activity as agonists” below) in assay [2] is “potent agonists”. For the same compound, in assay [1], the “inhibit the vitamin D stimulated production of osteocalcin” value was “inhibit”. As to `COc1ccc(-c2cncnc2)cc1C(C)(C)CC(O)(Cc1cc2cc(N3CCCCC3)ncc2[nH]1)C(F)(F)F` (centres unmarked) [1,1,1-Trifluoro-4-(2-methoxy-5-pyrimidin-5-ylphenyl)-4-methyl-2-(5-piperidin-1-yl-1H-pyrrolo[2,3-c]pyridin-2-ylmethyl)pentan-2-ol], the “activity as agonists” value in assay [2] is reported as “potent agonists”. The “inhibit the vitamin D stimulated production of osteocalcin” value in assay [1] is listed as “inhibit”. Turning to `COc1ccc(F)cc1C(C)(C)CC(O)(Cc1cc2cc(-c3ccccc3)ncc2[nH]1)C(F)(F)F` (centres unmarked) [1,1,1-Trifluoro-4-(5-fluoro-2-methoxyphenyl)-4-methyl-2-(5-phenyl-1H-pyrrolo[2,3-c]pyridin-2-ylmethyl)pentan-2-ol], in assay [2], the “activity as agonists” value is given as “potent agonists”. Besides, the “inhibit the vitamin D stimulated production of osteocalcin” value in assay [1] is “inhibit”. Take `Cc1ccc(F)cc1C(C)(C)CC(O)(Cc1cc2cc(N3CCOCC3)ncc2[nH]1)C(F)(F)F` (centres unmarked) [1,1,1-Trifluoro-4-(5-fluoro-2-methylphenyl)-4-methyl-2-(5-morpholin-4-yl-1H-pyrrolo[2,3-c]pyridin-2-ylmethyl)pentan-2-ol]: the “inhibit the vitamin D stimulated production of osteocalcin” value in assay [1] is reported as “inhibit”. In the case of `Cc1ccc(F)cc1C(C)(C)CC(O)(Cc1cc2cc(-c3ccccc3)ncc2[nH]1)C(F)(F)F` (centres unmarked) [1,1,1-Trifluoro-4-(5-fluoro-2-methylphenyl)-4-methyl-2-(5-phenyl-1H-pyrrolo[2,3-c]pyridin-2-ylmethyl)pentan-2-ol], the “activity as agonists” value in assay [2] is “potent agonists”. In addition, in assay [1], the “inhibit the vitamin D stimulated production of osteocalcin” value was “inhibit”. As to `Cc1ccc(F)cc1C(C)(C)CC(O)(Cc1cc2cc(N3CCCCC3)ncc2[nH]1)C(F)(F)F` (centres unmarked) [1,1,1-Trifluoro-4-(5-fluoro-2-methylphenyl)-4-methyl-2-(5-piperidin-1-yl-1H-pyrrolo[2,3-c]pyridin-2-ylmethyl)pentan-2-ol], in assay [1], the “inhibit the vitamin D stimulated production of osteocalcin” value is listed as “inhibit”. With `CC(C)(CC(O)(Cc1cc2cc(N3CCCCC3)ncc2[nH]1)C(F)(F)F)c1cc(S(C)(=O)=O)cc2c1OCC2` (centres unmarked) [1,1,1-Trifluoro-4-(5-methanesulfonyl-2,3-dihydrobenzofuran-7-yl)-4-methyl-2-(5-piperidin-1-yl-1H-pyrrolo[2,3-c]pyridin-2-ylmethyl)pentan-2-ol], the “activity as agonists” value in assay [2] is reported as “potent agonists”. For the same compound, in assay [1], the “inhibit the vitamin D stimulated production of osteocalcin” value is “inhibit”.

As to `Cc1c(CC(O)(CC(C)(C)c2cc(-c3cncnc3)cc3c2OCC3)C(F)(F)F)[nH]c2cnccc12` (centres unmarked) [1,1,1-Trifluoro-4-methyl-2-(3-methyl-1H-pyrrolo[2,3-c]pyridin-2-ylmethyl)-4-(5-pyrimidin-5-yl-2,3-dihydrobenzofuran-7-yl)pentan-2-ol], the “activity as agonists” value in assay [2] is reported as “potent agonists”. Also, the “inhibit the vitamin D stimulated production of osteocalcin” value in assay [1] is “inhibit”. As for `CC(C)(CC(O)(Cc1cc2cc(O)ncc2[nH]1)C(F)(F)F)c1cc(-c2ccccc2)ccc1O` (centres unmarked) [2-[2-Hydroxy-4-(4-hydroxybiphenyl-3-yl)-4-methyl-2-trifluoromethylpentyl]-1H-pyrrolo[2,3-c]pyridin-5-ol], the “activity as agonists” value in assay [2] is given as “potent agonists”. Besides, in assay [1], the “inhibit the vitamin D stimulated production of osteocalcin” value is “inhibit”. `CN(C)c1cc2cc(CC(O)(CC(C)(C)c3cc(F)ccc3O)C(F)(F)F)[nH]c2cn1` (centres unmarked) [2-[3-(5-Dimethylamino-1H-pyrrolo[2,3-c]pyridin-2-ylmethyl)-4,4,4-trifluoro-3-hydroxy-1,1-dimethylbutyl]-4-fluorophenol]: the “activity as agonists” value in assay [2] was “potent agonists”. The “inhibit the vitamin D stimulated production of osteocalcin” value in assay [1] is on record as “inhibit”. Turning to `CCN(C)c1cc2cc(CC(O)(CC(C)(C)c3cc(F)ccc3C)C(F)(F)F)[nH]c2cn1` (centres unmarked) [2-[5-(Ethylmethylamino)-1H-pyrrolo[2,3-c]pyridin-2-ylmethyl]-1,1,1-trifluoro-4-(5-fluoro-2-methylphenyl)-4-methylpentan-2-ol], the “activity as agonists” value in assay [2] is on record as “potent agonists”. Besides, in assay [1], the “inhibit the vitamin D stimulated production of osteocalcin” value is “inhibit”. Consider `CC(C)(CC(O)(Cc1cc2cc(N3CCOCC3)ncc2[nH]1)C(F)(F)F)c1cccc(Br)c1` (centres unmarked) [4-(3-Bromophenyl)-1,1,1-trifluoro-4-methyl-2-(5-morpholin-4-yl-1H-pyrrolo[2,3-c]pyridin-2-ylmethyl)pentan-2-ol], for which, in assay [2], the “activity as agonists” value is “potent agonists”. Besides, the “inhibit the vitamin D stimulated production of osteocalcin” value in assay [1] is given as “inhibit”. In the case of `CC(C)(CC(O)(Cc1cc2cnccc2[nH]1)C(F)(F)F)c1cccc(Cl)c1` (centres unmarked) [4-(3-Chlorophenyl)-1,1,1-trifluoro-4-methyl-2-(1H-pyrrolo[3,2-c]pyridin-2-ylmethyl)pentan-2-ol], the “activity as agonists” value in assay [2] is listed as “potent agonists”. Further, the “inhibit the vitamin D stimulated production of osteocalcin” value in assay [1] is listed as “inhibit”.

In the case of `Cc1nccc2[nH]c(CC(O)(CC(C)(C)c3cc(Cl)cc4c3OCC4)C(F)(F)F)cc12` (centres unmarked) [4-(5-Chloro-2,3-dihydrobenzofuran-7-yl)-1,1,1-trifluoro-4-methyl-2-(4-methyl-1H-pyrrolo[3,2-c]pyridin-2-ylmethyl)pentan-2-ol], in assay [2], the “activity as agonists” value is listed as “potent agonists”. In assay [1], the “inhibit the vitamin D stimulated production of osteocalcin” value is given as “inhibit”. As for `CC(C)(CC(O)(Cc1cc2cc(C(=O)N3CCOCC3)ccc2[nH]1)C(F)(F)F)c1cc(Br)cc2c1OCC2` (centres unmarked) [{2-[4-(5-Bromo-2,3-dihydrobenzofuran-7-yl)-2-hydroxy-4-methyl-2-trifluoromethylpentyl]-1H-indol-5-yl}morpholin-4-ylmethanone], the “activity in the GR binding assay” value in assay [3] is given as “potent activity”. For the same compound, the “activity as agonists” value in assay [2] is given as “potent agonists”. Regarding `COc1ccc(F)cc1C(C)(C)CC(O)(Cc1cc2cc(C(=O)N3CCC(O)C3)ccc2[nH]1)C(F)(F)F` (centres unmarked) [{2-[4-(5-Fluoro-2-methoxyphenyl)-2-hydroxy-4-methyl-2-trifluoromethylpentyl]-1H-indol-5-yl}(3-hydroxypyrrolidin-1-yl)methanone], the “activity in the GR binding assay” value in assay [3] is “potent activity”. Further, the “activity as agonists” value in assay [2] is listed as “potent agonists”.

With `COc1ccc(F)cc1C(C)(C)CC(O)(Cc1cc2cc(C(=O)N3CCOCC3)ccc2[nH]1)C(F)(F)F` (centres unmarked) [{2-[4-(5-Fluoro-2-methoxyphenyl)-2-hydroxy-4-methyl-2-trifluoromethylpentyl]-1H-indol-5-yl}morpholin-4-ylmethanone], the “activity in the GR binding assay” value in assay [3] was “potent activity”. Also, the “activity as agonists” value in assay [2] is on record as “potent agonists”.

For `COc1ccc(F)cc1C(C)(C)CC(O)(Cc1cc2cc(C(=O)N3CCCC3)ccc2[nH]1)C(F)(F)F` (centres unmarked) [{2-[4-(5-Fluoro-2-methoxyphenyl)-2-hydroxy-4-methyl-2-trifluoromethylpentyl]-1H-indol-5-yl}pyrrolidin-1-ylmethanone], the “activity in the GR binding assay” value in assay [3] is on record as “potent activity”. Besides, the “activity as agonists” value in assay [2] is “potent agonists”.
